In article PMC10604720, “Unraveling the Mechanism of Epichaperome Modulation by Zelavespib: Biochemical Insights on Target Occupancy and Extended Residence Time at the Site of Action” (Biomedicines, 2023):

Key:
epichaperomes [1] = test: In vivo target-drug unbinding kinetics taken from Phase 2 tumor pharmacokinetics; parameters: species or system mouse
Procedure: Figure 1 Biodistribution of zelavespib in MDA-MB-468 tumor-bearing mice. (a) Biodistribution of [^124I]-Zelavespib in MDA-MB-468 tumors, organs, tissues, and plasma as per ref. [32]. Data are presented as means ± s.d., five mice per time point. Curves for blood, lung, heart, muscle, bone, and brain were fitted using a one-phase decay equation, and kinetics of zelavespib clearance were determined. Tumor curve was fitted to a two-phase exponential decay. k, kfast, and kslow are the rate constants. Half-life (T1/2) is computed as ln(2)/k. […] (b) Illustrative schematic showing the distinct binding kinetics of zelavespib to epichaperomes (slow off-rate) and to chaperone assemblies (fast off-rate). The tumor pharmacokinetics profile recorded in the Phase 2 interval may represent a direct reflection of the in vivo kinetics of target–drug unbinding. koff, kinetic rate constant for dissociation of an epichaperome-zelavespib assembly. Rt, retention time. […]

epichaperomes [2] = test: Epichaperome determination by native PAGE / SDS-PAGE immunoblotting of MDA-MB-468 tumors; type: in vivo, mouse
Procedure: For epichaperome analysis, tumors were cut into small pieces and homogenized in native lysis buffer (20 mM HEPES pH 7.5, 50 mM KCl, 5 mM MgCl2, 0.01% NP40, 20 mM Na2MoO4) containing protease and phosphatase inhibitors using BioMasher® II Micro Tissue Homogenizers (VWR, Radnor, PA, USA). Samples were left on ice for 30 min and then subjected to native PAGE analysis. Protein concentrations were determined using the BCA kit (Pierce, Waltham, MA, USA) according to the manufacturer’s instructions. Protein lysate (10–60 µg) was loaded onto 5.5% native gel and resolved at 4 °C, transferred to nitrocellulose membrane, and probed with the indicated primary antibodies: HSP90α (AB2928; RRID:AB_303423; 1:8000) from Abcam (Cambridge, UK), HOP (ADI-SRA-1500; RRID:AB_10618972; 1:1000) from Enzo and CDC37 (4793S; RRID:AB_10695539; 1:1000) from Cell Signaling (Danvers, MA, USA). Membranes were then incubated with a 1:5000 dilution of a peroxidase-conjugated corresponding secondary antibody. Detection was performed using the ECL Enhanced Chemiluminescence Detection System (Pierce™ ECL Western Blotting Substrate) according to the manufacturer’s instructions.
In cellular studies, it has been proposed that zelavespib, upon binding, becomes trapped inside the epichaperome assemblies, leading to the disassembly of epichaperomes into individual components. However, this biochemical mechanism’s impact on the residence time of zelavespib at the site of action remains poorly understood in vivo. To investigate this, we analyzed the epichaperome target in tumors at 30 h and 72 h post-zelavespib administration using non-denaturing electrophoresis (native PAGE) (Figure 4a–c).
Figure 4 Epichaperome modulation by zelavespib in MDA-MB-468 tumor-bearing mice. (a) native-PAGE (top) or SDS-PAGE (bottom) followed by immunoblotting of epichaperome components (i.e., constituent chaperones and co-chaperones) in MDA-MB-468 tumors. Tumor-bearing mice were injected with a single dose of 50 mg/kg zelavespib, and tumor analysis was performed after sacrificing the mice at 30 h and 72 h post-zelavespib administration (n = 5 mice per time-point). Gels, representative tumors. To account for tumor heterogeneity (i.e., MDA-MB-468 are aggressive tumors with highly proliferative periphery adjacent to areas of necrosis), several cuts from the same tumor were analyzed when tumor size permitted. β-actin and GAPDH, protein loading controls; black arrowhead, biochemical signature of folding HSP90 pools as detected by native PAGE separation and immunoblotting; red arrowhead, non-specific signal, LE, low exposure; HE, high exposure. (b) Graph, data are presented as means ± s.e.m., n = 7, one-way ANOVA with Dunnett’s post hoc of tumors as in a. Because HSP90 in epichaperomes was not well separated from the folding HSP90 pool, we performed epichaperome quantification using CDC37 in epichaperomes as a surrogate marker. (c) Cartoon showing the proposed biochemical mechanism in vivo. Initially, zelavespib becomes trapped when epichaperomes bound, a mechanism that results in epichaperome disassembly, with no change in the expression level of epichaperome constituents. We propose that the initial trapping stage of epichaperomes is a main contributing factor to the extended on-target residence time observed for this agent in clinical settings. Zelavespib’s residence time in tumors seems to be dictated by target disassembly kinetics rather than by frank drug–target unbinding kinetics.

[3] = parameters: method as in PMID 31668946; conditions: whole-body PET imaging, mice; cited from earlier work

With `CC(C)NCCCn1c(Sc2cc3c(cc2I)OCO3)nc2c(N)ncnc21` [zelavespib] the “Rt = 1/koff (retention time)” value (epichaperomes [1]; epichaperome-zelavespib assembly) was 67.56 h, the “koff, dissociation of epichaperome-zelavespib assembly” value (epichaperomes [1]; taken as k of tumor Phase 2) was 4.11e-06 s⁻¹ and the “total chaperone levels on SDS-PAGE” value (epichaperomes [2]; 30 h post single 50 mg/kg) was “no corresponding alteration”. For the same molecule, the “increase in epichaperome signal on native PAGE compared to baseline” value (epichaperomes [2]; 30 h post single 50 mg/kg, CDC37 in epichaperomes as surrogate marker) was about 2.29 fold, the “decrease of epichaperome levels compared to baseline” value (epichaperomes [2]; 72 h post single 50 mg/kg) was “approximately 1.8 fold” and the “total chaperone levels on SDS-PAGE” value (epichaperomes [2]; 72 h post single 50 mg/kg) was “no observable change”. The “decrease in epichaperome signal on native PAGE compared to 30 h” value (epichaperomes [2]; 72 h post single 50 mg/kg, CDC37 in epichaperomes as surrogate marker) was “approximately 4.15 fold”, the “baseline epichaperome target remaining in tumors” value (epichaperomes [2]; 72 h post-zelavespib administration) was “approximately 24.09%” and the “T1/2 in MDA-MB-468 tumors” value [3] was “approximately 60 h”.
